Test results published in paper PMC4992173, “Divergent synthesis and identification of the cellular targets of deoxyelephantopins” (Nature Communications, 2016).

Experiments:
[1] = molecular target: T1, wt PPARG (Homo sapiens, UniProt P37231); experiment: Gel-based competitive IC50 determination in 293T lysates: WT PPARγ; assay type: binding; conditions: wt PPARG expressed in 293T cells, lysate, 1 h, then 10 μM 24c-Cy3
T1 construct: host or cells: 293T
Excerpt: (§1) Finally, we sought to understand the molecular basis for PPARγ binding by the synthetic analogues of deoxyelephantopin through identification of the precise covalently modified amino acid site. There is literature precedent for oxidized fatty acids containing an α,β-unsaturated ketone to form a covalent bond with a cysteine in the ligand-binding site of PPARγ[53]. More recently, synthetic ligands binding reversibly to a distinct site were identified. […] Bearing in mind that the structurally simplified, and thus less prone to MS/MS fragmentation, probe 23c binds PPARγ as efficiently as 24c (Supplementary Fig. 13), we treated the recombinant nuclear receptor with the former compound, digested the protein and analysed the resulting peptides by LC–MS/MS. […]
(§2) Supplementary figure 21: Top: Fluorescence gels corresponding to the IC50 curves presented in the main text Figure 8b. γ fluorescence signal in percentage after 19a treatment. […]
(§3) Biological materials. […] Protein concentration was determined using the Bradford assay (Bio-Rad).
(§4) Cell culture and preparation of lysates. […] Cells were lysed by sonication to form cell lysates and protein concentration was determined using the Bradford […]

[2] = molecular target: T2, PPARγ D174A (Homo sapiens, UniProt P37231, D174A); experiment: Gel-based competitive IC50 determination in 293T lysates: D174A PPARγ; assay type: binding; conditions: D174A PPARγ expressed in 293T cells, lysate, 1 h, then 10 μM 24c-Cy3
T2 construct: host or cells: 293T
T2 sequence (P37231 whole entry D174A): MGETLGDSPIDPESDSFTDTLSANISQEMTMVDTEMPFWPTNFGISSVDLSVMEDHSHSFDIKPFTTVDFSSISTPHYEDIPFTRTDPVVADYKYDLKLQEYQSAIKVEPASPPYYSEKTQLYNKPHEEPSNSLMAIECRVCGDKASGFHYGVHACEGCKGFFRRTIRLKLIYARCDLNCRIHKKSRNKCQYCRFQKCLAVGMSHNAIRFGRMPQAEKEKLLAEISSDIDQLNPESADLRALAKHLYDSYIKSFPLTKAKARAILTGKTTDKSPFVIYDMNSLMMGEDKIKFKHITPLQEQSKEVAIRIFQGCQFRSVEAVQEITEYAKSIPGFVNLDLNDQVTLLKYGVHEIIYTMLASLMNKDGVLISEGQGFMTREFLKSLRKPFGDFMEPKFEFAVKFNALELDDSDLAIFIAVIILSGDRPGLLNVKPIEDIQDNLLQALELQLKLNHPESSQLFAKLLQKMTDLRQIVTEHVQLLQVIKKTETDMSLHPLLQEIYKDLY
Excerpt: as §1, §2, §3, §4

T1 sequence (P37231 whole entry): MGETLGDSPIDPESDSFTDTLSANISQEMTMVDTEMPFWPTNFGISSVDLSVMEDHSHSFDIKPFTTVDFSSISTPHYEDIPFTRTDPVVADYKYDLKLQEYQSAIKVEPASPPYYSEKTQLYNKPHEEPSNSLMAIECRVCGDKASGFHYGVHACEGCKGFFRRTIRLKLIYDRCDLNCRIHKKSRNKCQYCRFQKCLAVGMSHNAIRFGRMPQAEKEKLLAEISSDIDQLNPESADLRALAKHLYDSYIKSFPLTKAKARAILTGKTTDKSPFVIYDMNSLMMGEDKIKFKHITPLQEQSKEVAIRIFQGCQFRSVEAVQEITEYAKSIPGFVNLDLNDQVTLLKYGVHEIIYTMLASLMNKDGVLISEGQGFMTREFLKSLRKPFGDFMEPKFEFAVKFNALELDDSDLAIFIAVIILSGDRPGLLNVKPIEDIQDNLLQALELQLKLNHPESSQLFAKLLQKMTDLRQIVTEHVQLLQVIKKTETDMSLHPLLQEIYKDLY

IC50 [1]: 19 µM | IC50 [2]: 58 µM
SMILES: C=C(C)C(=O)O[C@H]1CC2=C[C@H](C/C=C\[C@H]3OC(=O)C(=C)[C@H]13)OC2=O [19a]
